Reference: patent publication US9408392B2, “Compounds” (SYNGENTA PARTICIPATIONS AG, priority 2012, dated 2016)
Where “and” joins values, the source holds several entries; their conditions need not be identical. Equal values may be shown once.

Assays:
[1] = test system: Meloidogyne spp. (Root-knot nematode); experiment: Meloidogyne spp. (Root-knot nematode) contact activity, preventive, pouch test (Biological Screen Nem 1); assay type: in vivo; details: cucumber cv. Toshka, test solutions at 200 ppm, 3000 eggs, assessed after twelve days, cis vs trans isomers
Method: Meloidogyne spp. (Root-knot nematode) contact activity, preventive. Pouch test. Filter papers (9 cm×4.5 cm) with a small pocket were placed into plastic pouches (12 cm×6 cm). One cucumber cv. Toshka seed was placed in the centre of the filter paper pocket of all the pouches needed for a test. The cucumber seeds in the pouches were treated with test solutions at 200 ppm by pipetting the solution directly over the cucumber seed in the filter paper pocket in the pouch. Prior to application, the compound solution was prepared at twice the concentration required and the egg suspension is prepared with FORL nutrient solution with 3000 eggs/0.5 ml. After applying all the treatments, 3000 eggs (in 0.5 ml of FORL nutrient solution) were pipetted into the pouches. The pouches were incubated in a moist chamber for twelve days and watered regularly to maintain good filter paper moisture essential for the growing cucumber root system. After this period, the filter paper containing the germinated cucumber seedling was removed from the plastic pouch to assess the number of galls caused by Meloidogyne spp. per root system. Biological Screen Nem 1. Meloidogyne spp. (Root-knot nematode) contact activity, preventive. Pouch test. Values are given in % galling.

[2] = test system: M. incognita; experiment: Meloidogyne spp. (Root-knot nematode) contact activity, preventive, drench test (Biological Screen Nem 2); assay type: in vivo; details: cucumber cv. Toshka in pots, WP10 suspension at 20 ppm, 3000 eggs of M. incognita, harvested after fourteen days, Zeck's gall index, cis vs trans isomers
Method: Meloidogyne spp. (Root-knot nematode) contact activity, preventive, drench test. Cucumber cv. Toshka seeds were shown directly into pots filled with a sandy substrate. Six days later pots were each treated with 5 ml of a WP10 suspension of the test compound at 20 ppm. Hereafter pots were inoculated with 3000 eggs of M. incognita. The trial was harvested fourteen days after trial application and inoculation. Root galling was assessed according to Zeck's gall index (Zeck, 1971). Biological Screen Nem 2. Meloidogyne spp. (Root-knot nematode) contact activity, preventive, drench test. Values are given in % galling.

Row | SMILES | melting point | Nem 1 (% galling) [1] [%] | Nem 2 (% galling) [2] [%]
1 | O=C(N[C@@H]1C[C@@H]1c1ccc(Cl)cc1Cl)c1ccccc1C(F)(F)F (racemic) [Compound 67-014] | – | 100 | 98
2 | O=C(N[C@@H]1C[C@@H]1c1ccc(C(F)(F)F)cc1)c1ccccc1C(F)(F)F (racemic) [Compound 67-026] | – | 64 | 82
3 | O=C(N[C@@H]1C[C@@H]1c1ccc(F)cc1)c1ccccc1C(F)(F)F (relative stereo) [Compound 67-003, N-[cis-2-(4-Fluoro-Phenyl)-Cyclopropyl]-2-Trifluoromethyl-benzamide] | 140 to 142 °C and 139 to 140 °C | – | –
4 | O=C(N[C@@H]1C[C@@H]1c1ccc(OC(F)F)cc1)c1ccccc1C(F)(F)F (relative stereo) [Compound 67-011, N-[cis-2-(4-difluoromethoxy-phenyl)-cyclopropyl]-2-trifluoromethyl-benzamide] | 133 to 136 °C | – | –
5 | Cn1cc(C(=O)N[C@@H]2C[C@@H]2c2ccc(F)cc2)c(C(F)F)n1 (relative stereo) [Compound 67.002, 3-difluoromethyl-1-methyl-1H-pyrazole-4-carboxylic acid [(cis)-2-(4-fluoro-phenyl)-cyclopropyl]-amide] | 141 to 143 °C | – | –
6 | O=C(N[C@@H]1CC1c1ccc(Cl)cc1Cl)c1c(F)cccc1F (stereo partly shown) [Compound 67-016] | 179 to 182 °C | 81 | 96

The next lines start with results.

Row | melting point | SMILES | Nem 1 (% galling) [1] [%] | Nem 2 (% galling) [2] [%]
7 | 90 to 96 °C | C[C@H]1C(NC(=O)c2c(F)cccc2F)[C@H]1c1ccc(F)cc1 (mixture of isomers) [Compound 68.003, 2,6-difluoro-N-[(1R,2R,3R)-2-(4-fluorophenyl)-3-methyl-cyclopropyl]benzamide] | – | –
8 | 167 to 169 °C | C[C@H]1C(c2ccc(Cl)cc2)[C@@H]1NC(=O)c1ccccc1C(F)(F)F (mixture of isomers) [Compound 68.008, N-[(1R,2R,3S)-2-(4-chlorophenyl)-3-methyl-cyclopropyl]-2-(trifluoromethyl)benzamide] | – | –
9 | 140 to 142 °C | C[C@]1(c2ccc(Cl)cc2)CC1NC(=O)c1c(F)cccc1F (mixture of isomers) [Compound 68.009, N-[(1R,2R)-2-(4-chlorophenyl)-2-methyl-cyclopropyl]-2,6-difluoro-benzamide] | – | –
